How the values were obtained:
CDK9/CyclinT1 = CDK9/CyclinT1 (Homo sapiens (Human), UniProt P50750); experiment: CDK9 kinase assay (TR-FRET); assay type: biochemical; details: CDK9/CyclinT1 1.0 nM, ATP 3.5 μM
Method: (§1) The purpose of these assays is to evaluate the inhibition of small molecule inhibitors by using TR-FRET assay.
(§2) Compound Preparation. Dissslove the compounds into DMSO solution to make 10 mM DMSO stock. Serially dilute the stock solution from highest concentration down to lowest in DMSO to make the compound stock plate (100× stock plates). To make 5× compound intermediate plate, add 38 μL of assay buffer (50 mM HEPES, pH 7.5, 0.05 mg/mL BSA, 10 mM MgCl2, 1 mM EGTA, 0.01% Tween-20, 2 mM DTT) into each well of the V-bottom plate; then transfer 2 μL of the stock compound solution of each concentration from the compound stock plate (100× stock), and mix well.
(§3) Enzyme reaction. Transfer 2 μL compound from 5× intermediate plate into assay plate, then add 4 μL/well 2.5× Enzyme mix to assay plate, incubation for 10 min at room temperature. For positive control wells, add 4 μL/well assay buffer instead of Enzyme mix. Then add 4 μL/well 2.5× Substrate mix to assay plate, and incubation at 25° C. for 30 min at room temperature. After reaction, 10 μL 2× Detection mix (final 15 mM EDTA, 1× LANCE Detection Buffer, 0.5 nM Detection antibody) was added and incubated for 1 h prior to detection with excitation and emission at 320 and 665 nm (Tecan Spark® TR-FRET mode Tecan).
(§4) Inhibition rate (IR) of the tested compounds was determined by the following formula: IR (%)=(average High control−compound well)/(average High control−average Low control)*100%. Fit the compound IC50 from non-linear regression equation: Y=Bottom+(Top−Bottom)/(1+10^((Log IC50−X)*HillSlope)). X: Log of cpd concentration; Y: Inhibition rate (TR); Top and Bottom: Plateaus in same units as Y, log IC50: same log units as X; HillSlope: Slope factor or Hill slope.

CDK1/CyclinB1 = CDK1/CyclinB1 (Homo sapiens (Human), UniProt P06493); experiment: CDK1 kinase assay (TR-FRET); assay type: biochemical; details: CDK1/CyclinB 7.5 nM, ATP 17 μM
Method: as §1, §2, §3, §4

CDK2/CyclinE1 = CDK2/CyclinE1 (Homo sapiens (Human), UniProt P24941); experiment: CDK2 kinase assay (TR-FRET); assay type: biochemical; details: CDK2/CyclinE1 0.5 nM, ATP 50 μM
In short: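 Compounds were preincubated 10 min at room temperature with enzyme in 50 mM HEPES pH 7.5, 10 mM MgCl2, 1 mM EGTA, 2 mM DTT, 0.01% Tween-20, BSA. Substrate reaction ran 30 min at 25 °C, was stopped with EDTA and read by LANCE TR-FRET (ex 320/em 665 nm) after 1 h. IC50 came from a four-parameter fit of % inhibition.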

CDK6/CyclinD3 = CDK6/CyclinD3 (Homo sapiens (Human), UniProt Q00534); experiment: CDK6 kinase assay (TR-FRET); assay type: biochemical; details: CDK6/CyclinD3 0.50 nM, ATP 140 μM
Method: as §1, §2, §3, §4

CDK4/CyclinD1 = CDK4/CyclinD1 (Homo sapiens (Human), UniProt P11802); experiment: CDK4 kinase assay (TR-FRET); assay type: biochemical; details: CDK4/CyclinD1 0.50 nM, ATP 225 μM
Method: as §1, §2, §3, §4

OVCAR3 cancer cells = experiment: OVCAR3 proliferation assay (CellTiter-Glo); assay type: cell-based; details: Homo sapiens, OVCAR-3, 144 h, 6 days incubation, read-out: OVCAR3 CTG IC50
Method: The OVCAR3 cancer cells were cultured at temperature 37° C., 5% CO2 incubator. The cells were routinely subcultured. The cells growing in an exponential growth phase were harvested and counted for plating. Plate 100 μL of cell suspension into the assay plates. Incubate the assay plates at 37° C., 5% CO2, 95% air and 100% relative humidity overnight. The compounds to be tested were dissolved in dimethyl sulfoxide and prepared with a stock concentration of 10 mM. Serially dilute the stock solution from highest concentration down to lowest in DMSO to make the compound stock plate (200× stock plates). Add 0.5 μL of the 200× compound of each well into the cells in assay plates. The final DMSO concentration was 0.5%. Return the assay plate into incubator and incubate for 6 days. The procedures were performed according to the Promega CellTiter-Glo Luminescent Cell Viability Assay Kit to detect cell viability.
as §4, with “(IR);” for “(TR);”, “Y;” for “Y,”

GSK3β = GSK3β (Homo sapiens (Human), UniProt P49841); experiment: GSK3β kinase assay (TR-FRET); assay type: biochemical; details: GSK3β 1.0 nM, ATP 8.0 μM
Method: as §1, §2, §3, §4

Chain of CDK1/CyclinB1 (P06493 whole entry): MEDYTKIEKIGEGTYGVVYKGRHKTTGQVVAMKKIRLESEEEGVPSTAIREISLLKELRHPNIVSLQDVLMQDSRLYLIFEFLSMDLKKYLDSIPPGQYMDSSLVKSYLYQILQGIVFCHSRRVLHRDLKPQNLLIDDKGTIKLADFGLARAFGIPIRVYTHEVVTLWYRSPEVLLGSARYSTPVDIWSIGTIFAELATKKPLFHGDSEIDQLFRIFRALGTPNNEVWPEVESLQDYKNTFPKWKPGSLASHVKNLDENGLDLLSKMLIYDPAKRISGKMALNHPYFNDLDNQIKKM
Chain of CDK1/CyclinB1 (P14635 whole entry partner): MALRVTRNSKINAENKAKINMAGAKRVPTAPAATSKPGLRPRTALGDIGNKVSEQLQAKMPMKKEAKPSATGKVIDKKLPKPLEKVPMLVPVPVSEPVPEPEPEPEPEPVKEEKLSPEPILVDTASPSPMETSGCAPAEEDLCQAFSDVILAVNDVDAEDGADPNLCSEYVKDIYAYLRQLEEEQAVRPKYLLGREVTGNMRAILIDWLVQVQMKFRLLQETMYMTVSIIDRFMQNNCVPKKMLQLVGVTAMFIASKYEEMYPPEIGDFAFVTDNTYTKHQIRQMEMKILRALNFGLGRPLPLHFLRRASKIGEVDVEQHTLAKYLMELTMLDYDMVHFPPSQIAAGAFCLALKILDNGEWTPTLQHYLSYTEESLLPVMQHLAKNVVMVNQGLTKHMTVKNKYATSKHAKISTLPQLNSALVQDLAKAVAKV
Chain of CDK6/CyclinD3 (Q00534 whole entry): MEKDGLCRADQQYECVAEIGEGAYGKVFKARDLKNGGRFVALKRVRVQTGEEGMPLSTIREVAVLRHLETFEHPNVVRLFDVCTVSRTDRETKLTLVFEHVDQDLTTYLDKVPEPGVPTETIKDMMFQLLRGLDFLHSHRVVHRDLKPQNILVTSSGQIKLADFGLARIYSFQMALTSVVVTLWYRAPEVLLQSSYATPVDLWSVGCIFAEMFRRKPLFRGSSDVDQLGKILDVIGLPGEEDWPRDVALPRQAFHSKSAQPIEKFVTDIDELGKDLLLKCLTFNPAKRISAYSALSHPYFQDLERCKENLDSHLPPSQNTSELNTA
Chain of CDK6/CyclinD3 (P30281 whole entry partner): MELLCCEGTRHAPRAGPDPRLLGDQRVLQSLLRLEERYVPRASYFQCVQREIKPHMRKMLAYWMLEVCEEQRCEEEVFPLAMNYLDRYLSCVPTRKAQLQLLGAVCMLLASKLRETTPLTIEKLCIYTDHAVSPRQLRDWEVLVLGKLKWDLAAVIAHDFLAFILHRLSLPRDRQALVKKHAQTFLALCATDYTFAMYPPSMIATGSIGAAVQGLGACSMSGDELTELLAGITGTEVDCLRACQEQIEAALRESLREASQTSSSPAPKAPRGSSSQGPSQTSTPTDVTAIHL
Chain of CDK9/CyclinT1 (P50750 whole entry): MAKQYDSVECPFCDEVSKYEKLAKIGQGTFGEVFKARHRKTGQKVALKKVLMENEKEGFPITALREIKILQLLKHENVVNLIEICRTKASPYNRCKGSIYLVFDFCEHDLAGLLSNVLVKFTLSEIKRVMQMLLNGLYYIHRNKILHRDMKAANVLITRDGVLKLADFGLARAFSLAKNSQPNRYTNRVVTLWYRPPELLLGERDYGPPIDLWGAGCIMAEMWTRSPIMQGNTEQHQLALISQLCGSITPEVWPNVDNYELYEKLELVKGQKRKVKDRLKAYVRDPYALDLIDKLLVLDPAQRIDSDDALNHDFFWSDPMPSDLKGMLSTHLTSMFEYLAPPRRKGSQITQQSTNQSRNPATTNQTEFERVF
Chain of CDK9/CyclinT1 (O60563 whole entry partner): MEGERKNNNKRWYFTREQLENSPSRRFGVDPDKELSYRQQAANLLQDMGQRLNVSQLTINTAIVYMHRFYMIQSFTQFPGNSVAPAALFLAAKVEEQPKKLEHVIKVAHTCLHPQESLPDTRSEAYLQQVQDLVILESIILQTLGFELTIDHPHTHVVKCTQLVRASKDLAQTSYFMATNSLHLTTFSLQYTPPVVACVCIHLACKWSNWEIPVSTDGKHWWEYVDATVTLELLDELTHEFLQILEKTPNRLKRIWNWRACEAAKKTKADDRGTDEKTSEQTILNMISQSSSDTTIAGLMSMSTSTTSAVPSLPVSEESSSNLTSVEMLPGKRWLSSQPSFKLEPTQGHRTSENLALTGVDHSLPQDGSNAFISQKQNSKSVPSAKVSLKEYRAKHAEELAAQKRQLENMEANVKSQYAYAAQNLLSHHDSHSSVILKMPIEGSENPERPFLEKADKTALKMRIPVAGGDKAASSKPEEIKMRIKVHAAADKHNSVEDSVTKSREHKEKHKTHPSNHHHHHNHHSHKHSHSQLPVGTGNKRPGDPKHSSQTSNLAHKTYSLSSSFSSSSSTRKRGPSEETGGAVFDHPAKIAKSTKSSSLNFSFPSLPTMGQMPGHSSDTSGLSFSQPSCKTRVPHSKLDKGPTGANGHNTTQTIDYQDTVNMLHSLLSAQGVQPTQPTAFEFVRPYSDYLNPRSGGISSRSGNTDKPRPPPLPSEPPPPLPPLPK
Chain of GSK3β (P49841 whole entry): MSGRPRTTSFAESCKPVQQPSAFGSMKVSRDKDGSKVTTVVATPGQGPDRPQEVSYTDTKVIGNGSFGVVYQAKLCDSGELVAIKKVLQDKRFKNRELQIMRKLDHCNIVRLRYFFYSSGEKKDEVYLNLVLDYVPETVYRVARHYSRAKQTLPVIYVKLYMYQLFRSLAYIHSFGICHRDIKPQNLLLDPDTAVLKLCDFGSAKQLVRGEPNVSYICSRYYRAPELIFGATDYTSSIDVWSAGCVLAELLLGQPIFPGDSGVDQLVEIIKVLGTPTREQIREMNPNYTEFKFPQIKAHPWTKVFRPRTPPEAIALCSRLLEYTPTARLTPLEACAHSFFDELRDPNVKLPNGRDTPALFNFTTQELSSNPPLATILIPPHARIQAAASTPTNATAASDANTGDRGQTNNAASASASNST
Chain of CDK4/CyclinD1 (P11802 whole entry): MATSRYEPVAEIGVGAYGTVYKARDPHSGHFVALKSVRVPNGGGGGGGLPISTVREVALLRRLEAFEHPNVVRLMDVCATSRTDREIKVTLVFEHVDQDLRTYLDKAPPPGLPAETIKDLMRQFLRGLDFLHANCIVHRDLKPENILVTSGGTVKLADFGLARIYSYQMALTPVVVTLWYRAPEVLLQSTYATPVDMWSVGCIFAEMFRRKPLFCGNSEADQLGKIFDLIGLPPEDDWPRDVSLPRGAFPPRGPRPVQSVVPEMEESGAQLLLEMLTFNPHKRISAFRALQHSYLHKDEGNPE
Chain of CDK4/CyclinD1 (P24385 whole entry partner): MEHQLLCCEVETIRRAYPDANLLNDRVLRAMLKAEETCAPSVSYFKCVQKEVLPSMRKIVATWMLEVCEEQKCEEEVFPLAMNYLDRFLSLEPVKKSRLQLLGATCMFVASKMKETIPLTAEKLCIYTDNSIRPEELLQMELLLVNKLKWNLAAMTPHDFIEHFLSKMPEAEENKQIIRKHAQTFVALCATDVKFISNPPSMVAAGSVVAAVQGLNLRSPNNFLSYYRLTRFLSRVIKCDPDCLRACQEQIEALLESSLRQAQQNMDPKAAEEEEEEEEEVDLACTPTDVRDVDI

Row | SMILES | IC50 (CDK9/CyclinT1) [nM] | IC50 (CDK1/CyclinB1) [nM] | IC50 (CDK2/CyclinE1) [nM] | IC50 (CDK6/CyclinD3) [nM] | IC50 (CDK4/CyclinD1) [nM] | IC50 (OVCAR3 cancer cells) [nM] | IC50 (GSK3β) [nM]
1 | CC(C)NC(=O)O[C@@H]1CC[C@H](c2cc(NC(=O)[C@@H]3CCN(S(C)(=O)=O)C3)n[nH]2)C1 [Compound 25] |  | 54.9 | 1.2 | 899 | 510 |  | 
2 | C#C[C@H]1C[C@@H]1C(=O)Nc1cc([C@H]2CC[C@@H](OC(=O)NC(C)C)C2)[nH]n1 [Compound 41] |  |  | 0.9 | 254 | 306 | 193 | 572
3 | Cn1nccc1C(=O)Nc1cc([C@@H]2C[C@H](OC(=O)NC34CC(C3)C4)CO2)[nH]n1 [Compound 97] |  | 72.6 | 1.1 |  |  |  | 381
4 | CC[C@H](C)NC(=O)O[C@@H]1CO[C@H](c2cc(NC(=O)c3ccnn3C)n[nH]2)C1 [Compound 100] |  | 74.8 | 1.5 |  |  |  | 706
5 | CC(C)NC(=O)O[C@@H]1CC[C@H](c2cc(NC(=O)C34CC(C#N)(C3)C4)n[nH]2)C1 [Compound 109] |  |  | 0.9 |  |  | 237 | 
6 | Cn1nccc1C(=O)Nc1cc([C@H]2C[C@@H](OC(=O)NC3CCC3)CO2)[nH]n1 [Compound 122] |  | 89.4 | 1.9 |  |  |  | 
7 | CC(C)NC(=O)O[C@@H]1CC[C@H](c2cc(NC(=O)C34CC(C(=O)NO)(C3)C4)n[nH]2)C1 [Compound 126] |  | 142 | 2.5 |  |  |  | 
8 | CC(C)NC(=O)O[C@@H]1CC[C@H](C2=CC(NC(=O)[C@H]3C[C@@H]3[C@H](C)O)=NC2)C1 [Compound 136] |  | 64.6 | 1.2 |  |  |  | 
9 | C#C[C@H]1C[C@@H]1C(=O)Nc1cc([C@H]2CC[C@@H](OC(=O)NC3(C)COC3)C2)[nH]n1 [Compound 180] | 210 | 69.4 | 1.1 |  |  |  | 
10 | O=C(NC12CC(F)(C1)C2)O[C@@H]1CC[C@H](c2cc(NC(=O)[C@@H]3CCN(S(=O)(=O)C4CC4)C3)n[nH]2)C1 [Compound 181] |  | 34.4 | 0.8 |  |  |  | 
11 | C#CC1(NC(=O)O[C@H]2CO[C@@H](c3cc(NC(=O)c4ccnn4C)n[nH]3)C2)CCC1 [Compound 189] |  | 58.6 | 1 |  |  |  | 

Further molecules by falling IC50 (CDK2/CyclinE1), results first:

Row | IC50 (CDK9/CyclinT1) [nM] | IC50 (CDK1/CyclinB1) [nM] | IC50 (CDK2/CyclinE1) [nM] | IC50 (CDK6/CyclinD3) [nM] | IC50 (CDK4/CyclinD1) [nM] | IC50 (OVCAR3 cancer cells) [nM] | IC50 (GSK3β) [nM] | SMILES
12 |  | 133 | 2.5 |  |  |  |  | Cn1nccc1C(=O)Nc1cc([C@@H]2C[C@H](OC(=O)NC(C)(C)C)CO2)[nH]n1 [Compound 102]
13 |  | 132 | 2.2 |  |  |  | 395 | CCS(=O)(=O)N1CC[C@@H](C(=O)Nc2cc([C@H]3CC[C@@H](OC(=O)NC(C)C)C3)[nH]n2)C1 [Compound 49]
14 |  | 134 | 2.1 |  |  |  |  | CC1(NC(=O)OC2COC(c3cc(NC(=O)Cc4cc(F)cc(F)c4)n[nH]3)C2)CCOC1 (stereo not drawn) [Compound 53]
15 |  | 118 | 1.9 | 574 | 652 |  |  | CC[C@H](C)NC(=O)O[C@@H]1CC[C@H](c2cc(NC(=O)[C@H]3C[C@@H]3COC)n[nH]2)C1 [Compound 33]
16 |  | 111 | 1.6 | 1000 | 1000 |  | 1000 | CC1(NC(=O)OC2COC(c3cc(NC(=O)Cc4cc(F)cc(F)c4)n[nH]3)C2)CCOC1 (stereo not drawn) [Compound 52]
17 |  |  | 1.6 |  |  | 74 |  | CC(C)(C)NC(=O)O[C@@H]1CC[C@H](c2cc(NC(=O)[C@@H]3CCN(S(C)(=O)=O)C3)n[nH]2)C1 [Compound 84]
18 | 1000 | 60.9 | 1.2 |  |  |  |  | CC(C)NC(=O)O[C@@H]1CC[C@H](c2cc(NC(=O)C3CC(C)N(S(C)(=O)=O)C3)n[nH]2)C1 (single isomer, unassigned) [Compound 143]
19 | 131 | 101 | 1.2 |  |  |  |  | CCC(C)(C)NC(=O)O[C@@H]1CO[C@H](c2cc(NC(=O)c3ccnn3C)n[nH]2)C1 [Compound 191]
